Measurements reported in patent US10576062B2, “Carbamoyloxymethyl triazole cyclohexyl acids as LPA antagonists” (Bristol-Myers Squibb Company, priority 2016, dated 2020).

molecular target: T1, human LPA1 (Homo sapiens, UniProt Q92633); test: LPA1 functional antagonist assay (LPA-induced calcium flux); type: cell-based; conditions: CHO cells overexpressing human LPA1; inhibition of calcium flux induced by 10 nM LPA; read-out: hLPA1 IC50
T1 construct: expressed in transfected cells; host or cells: Chinese hamster ovary (CHO) cells
Protocol: The effectiveness of compounds of the present invention as LPA1 inhibitors can be determined in an LPA1 functional antagonist assay as follows: Chinese hamster ovary cells overexpressing human LPA1 were plated overnight (15,000 cells/well) in poly-D-lysine coated 384-well microplates (Greiner bio-one, Cat #781946) in DMEM/F12 medium (Gibco, Cat #11039). Following overnight culture, cells were loaded with calcium indicator dye (AAT Bioquest Inc, Cat #34601) for 30 minutes at 37° C. The cells were then equilibrated to room temperature for 30 minutes before the assay. Test compounds solubilized in DMSO were transferred to 384 well non-binding surface plates (Corning, Cat #3575) using the Labcyte Echo acoustic dispense and diluted with assay buffer [1×HBSS with calcium/magnesium (Gibco Cat #14025-092), 20 mM HEPES (Gibco Cat #15630-080) and 0.1% fatty acid free BSA (Sigma Cat #A9205)] to a final concentration of 0.5% DMSO. Diluted compounds were added to the cells by FDSS6000 (Hamamatsu) at final concentrations ranging from 0.08 nM to 5 μM. and were then incubated for 20 min at room temperature at which time LPA (Avanti Polar Lipids Cat #857130C) was added at final concentrations of 10 nM to stimulate the cells. […] IC50 values were determined by fitting data to a 4-parameter logistic equation (GraphPad Prism, San Diego Calif.).

T1 sequence (Q92633 whole entry): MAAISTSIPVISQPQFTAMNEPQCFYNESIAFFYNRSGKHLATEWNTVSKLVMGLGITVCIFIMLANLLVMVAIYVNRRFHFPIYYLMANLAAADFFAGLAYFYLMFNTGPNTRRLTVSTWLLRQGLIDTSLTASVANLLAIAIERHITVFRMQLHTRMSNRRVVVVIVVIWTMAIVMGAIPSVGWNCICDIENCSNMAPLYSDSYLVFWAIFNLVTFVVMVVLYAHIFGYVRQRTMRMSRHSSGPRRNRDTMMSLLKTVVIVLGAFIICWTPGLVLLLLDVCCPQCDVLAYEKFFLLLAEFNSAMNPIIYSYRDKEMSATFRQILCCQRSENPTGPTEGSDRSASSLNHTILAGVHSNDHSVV

IC50 [nM] | SMILES
19 | CN(C(=O)OCc1c(-c2ccc(O[C@H]3CCC[C@H](C(=O)O)C3)cn2)nnn1C)C1CCCC1 [Example 2, (1S,3S)-3-((6-(5-(((cyclopentyl(methyl)carbamoyl)oxy)methyl)-1-methyl-1H-1,2,3-triazol-4-yl)pyridin-3-yl)oxy)cyclohexane-1-carboxylic Acid]
19 | CN(CCC1CC1)C(=O)OCc1c(-c2ccc(O[C@H]3CCC[C@H](C(=O)O)C3)cn2)nnn1C [Example 3, (1S,3S)-3-((6-(5-((((2-cyclopropylethyl)(methyl)carbamoyl)oxy)methyl)-1-methyl-1H-1,2,3-triazol-4-yl)pyridin-3-yl)oxy)cyclohexane-1-carboxylic Acid]
3750 | CN(C(=O)OCc1c(-c2ccc(O[C@H]3CCC[C@H](C(=O)NS(C)(=O)=O)C3)cc2)nnn1C)C1CCCC1 [Example 7, (1-Methyl-4-(4-(((1S,3S)-3-((methylsulfonyl)carbamoyl)cyclohexyl)oxy)phenyl)-1H-1,2,3-triazol-5-yl)methyl cyclopentyl(methyl)carbamate]
23 | CCCC(C)(C)N(C)C(=O)OCc1c(-c2ccc(O[C@H]3CCC[C@H](C(=O)O)C3)cc2)nnn1C [Example 10, (1S,3S)-3-(4-(1-Methyl-5-(((methyl(2-methylpentan-2-yl)carbamoyl)oxy)methyl)-1H-1,2,3-triazol-4-yl)phenoxy)cyclohexanecarboxylic Acid]
824 | Cc1nc(-c2nnn(C)c2COC(=O)N(C)CC2CCC2)ccc1O[C@H]1CCC[C@H](C(N)=O)C1 [Example 14, (4-(5-(((1S,3S)-3-carbamoylcyclohexyl)oxy)-6-methylpyridin-2-yl)-1-methyl-1H-1,2,3-triazol-5-yl)methyl (cyclobutylmethyl)(methyl)carbamate]
3750 | Cc1nc(-c2nnn(C)c2COC(=O)N(C)CC2CCC2)ccc1O[C@H]1CCC[C@H](C#N)C1 [Example 15, (4-(5-(((1S,3S)-3-cyanocyclohexyl)oxy)-6-methylpyridin-2-yl)-1-methyl-1H-1,2,3-triazol-5-yl)methyl (cyclobutylmethyl)(methyl)carbamate]
22 | Cc1nc(-c2nnn(C)c2COC(=O)N(C)CC2CCC2)ccc1O[C@H]1CCC[C@H](c2nnn[nH]2)C1 [Example 16, (4-(5-(((1S,3 S)-3-(1H-tetrazol-5-yl)cyclohexyl)oxy)-6-methylpyridin-2-yl)-1-methyl-1H-1,2,3-triazol-5-yl)methyl (cyclobutylmethyl)(methyl)carbamate]
352 | Cc1nc(-c2nnn(C)c2COC(=O)N(C)CC2CCC2)ccc1O[C@H]1CCC[C@H](C(=O)NS(C)(=O)=O)C1 [Example 17, (1-methyl-4-(6-methyl-5-(((1S,3S)-3-((methylsulfonyl)carbamoyl)cyclohexyl)oxy)pyridin-2-yl)-1H-1,2,3-triazol-5-yl)methyl (cyclobutylmethyl)(methyl)carbamate]

same assay, conditions: read-out: hLPA1 IC50

IC50 [nM] | SMILES
17 | Cc1nc(-c2nnn(C)c2COC(=O)N(C)[C@H](C)c2ccccc2)ccc1O[C@H]1CCC[C@H](C(=O)O)C1 [Example 19, (1S,3S)-3-((2-methyl-6-(1-methyl-5-(((methyl((R)-1-phenylethyl)carbamoyl)oxy)methyl)-1H-1,2,3-triazol-4-yl)pyridin-3-yl)oxy)cyclohexane-1-carboxylic acid]
21 | C[C@H](c1ccccc1)N(C)C(=O)OCc1c(-c2ccc(O[C@H]3CCC[C@H](C(=O)O)C3)cn2)nnn1C [Example 21, (1S,3S)-3-((6-(1-methyl-5-(((methyl((R)-1-phenylethyl)carbamoyl)oxy)methyl)-1H-1,2,3-triazol-4-yl)pyridin-3-yl)oxy)cyclohexane-1-carboxylic acid]
18 | CN(Cc1ccccc1)C(=O)OCc1c(-c2ccc(O[C@H]3CCC[C@H](C(=O)O)C3)cn2)nnn1C [Example 22, (1S,3S)-3-((6-(5-(((benzyl(methyl)carbamoyl)oxy)methyl)-1-methyl-1H-1,2,3-triazol-4-yl)pyridin-3-yl)oxy)cyclohexane-1-carboxylic acid]
12 | CN(CC1CCC1)C(=O)OCc1c(-c2ccc(O[C@H]3CCC[C@H](C(=O)O)C3)cn2)nnn1C [Example 23, (1S,3S)-3-((6-(5-((((cyclobutylmethyl)(methyl)carbamoyl)oxy)methyl)-1-methyl-1H-1,2,3-triazol-4-yl)pyridin-3-yl)oxy)cyclohexane-1-carboxylic acid]
20 | C[C@H](C1CC1)N(C)C(=O)OCc1c(-c2ccc(O[C@H]3CCC[C@H](C(=O)O)C3)cn2)nnn1C [Example 25, (1S,3S)-3-((6-(5-(((((R)-1-cyclopropylethyl)(methyl)carbamoyl)oxy)methyl)-1-methyl-1H-1,2,3-triazol-4-yl)pyridin-3-yl)oxy)cyclohexane-1-carboxylic acid]
34 | CN(Cc1ccccc1)C(=O)OCc1c(-c2ccc(O[C@H]3CCC[C@H](C(=O)O)C3)c(F)c2)nnn1C [Example 26, (1S,3S)-3-(4-(5-(((benzyl(methyl)carbamoyl)oxy)methyl)-1-methyl-1H-1,2,3-triazol-4-yl)-2-fluorophenoxy)cyclohexane-1-carboxylic acid]
14 | CN(CC1CCC1)C(=O)OCc1c(-c2ccc(O[C@H]3CCC[C@H](C(=O)O)C3)c(F)c2)nnn1C [Example 27, (1S,3S)-3-(4-(5-((((cyclobutylmethyl)(methyl)carbamoyl)oxy)methyl)-1-methyl-1H-1,2,3-triazol-4-yl)-2-fluorophenoxy)cyclohexane-1-carboxylic acid]
41 | Cc1nc(-c2nnn(C)c2COC(=O)N(C)[C@H](C)C2CC2)ccc1O[C@H]1CCC[C@H](C(=O)O)C1 [Example 29, (1S,3S)-3-((6-(5-(((((R)-1-cyclopropylethyl)(methyl)carbamoyl)oxy)methyl)-1-methyl-1H-1,2,3-triazol-4-yl)-2-methylpyridin-3-yl)oxy)cyclohexane-1-carboxylic acid]
16 | Cc1nc(-c2nnn(C)c2COC(=O)N(C)Cc2ccccc2)ccc1O[C@H]1CCC[C@H](C(=O)O)C1 [Example 30, (1S,3S)-3-((6-(5-(((benzyl(methyl)carbamoyl)oxy)methyl)-1-methyl-1H-1,2,3-triazol-4-yl)-2-methylpyridin-3-yl)oxy)cyclohexane-1-carboxylic acid]
16 | Cc1nc(-c2nnn(C)c2COC(=O)N(C)CCC(C)C)ccc1O[C@H]1CCC[C@H](C(=O)O)C1 [Example 34, (1S,3S)-3-((6-(5-(((isopentyl(methyl)carbamoyl)oxy)methyl)-1-methyl-1H-1,2,3-triazol-4-yl)-2-methylpyridin-3-yl)oxy)cyclohexane-1-carboxylic acid]
284 | Cc1nc(-c2nnn(C)c2COC(=O)N(C)Cc2ccc(Cl)cc2)ccc1O[C@H]1CCC[C@H](C(=O)O)C1 [Example 35, (1S,3S)-3-((6-(5-((((4-chlorobenzyl)(methyl)carbamoyl)oxy)methyl)-1-methyl-1H-1,2,3-triazol-4-yl)-2-methylpyridin-3-yl)oxy)cyclohexane-1-carboxylic acid]
6 | Cc1cc(-c2nnn(C)c2COC(=O)N(C)[C@H](C)C2CC2)ccc1O[C@H]1CCC[C@H](C(=O)O)C1 [Example 36, (1S,3S)-3-(4-(5-(((((R)-1-cyclopropylethyl)(methyl)carbamoyl)oxy)methyl)-1-methyl-1H-1,2,3-triazol-4-yl)-2-methylphenoxy)cyclohexane-1-carboxylic acid]
14 | Cc1cc(-c2nnn(C)c2COC(=O)N(C)CC2CCC2)ccc1O[C@H]1CCC[C@H](C(=O)O)C1 [Example 37, (1S,3S)-3-(4-(5-((((cyclobutylmethyl)(methyl)carbamoyl)oxy)methyl)-1-methyl-1H-1,2,3-triazol-4-yl)-2-methylphenoxy)cyclohexane-1-carboxylic acid]
32 | Cc1cc(-c2nnn(C)c2COC(=O)N(C)Cc2ccccc2)ccc1O[C@H]1CCC[C@H](C(=O)O)C1 [Example 38, (1S,3S)-3-(4-(5-(((benzyl(methyl)carbamoyl)oxy)methyl)-1-methyl-1H-1,2,3-triazol-4-yl)-2-methylphenoxy)cyclohexane-1-carboxylic acid]
28 | CCCCN(C)C(=O)OCc1c(-c2ccc(O[C@H]3CCC[C@H](C(=O)O)C3)c(C)c2)nnn1C [Example 40, (1S,3S)-3-(4-(5-(((butyl(methyl)carbamoyl)oxy)methyl)-1-methyl-1H-1,2,3-triazol-4-yl)-2-methylphenoxy)cyclohexane-1-carboxylic acid]
14 | Cc1cc(-c2nnn(C)c2COC(=O)N(C)C2CCCC2)ccc1O[C@H]1CCC[C@H](C(=O)O)C1 [Example 41, (1S,3S)-3-(4-(5-(((cyclopentyl(methyl)carbamoyl)oxy)methyl)-1-methyl-1H-1,2,3-triazol-4-yl)-2-methylphenoxy)cyclohexane-1-carboxylic acid]
3750 | Cc1cc(-c2nnn(C)c2COC(=O)N(C)CCC(C)C)ncc1O[C@H]1CCC[C@H](C(=O)O)C1 [Example 42, (1S,3S)-3-((6-(5-(((isopentyl(methyl)carbamoyl)oxy)methyl)-1-methyl-1H-1,2,3-triazol-4-yl)-4-methylpyridin-3-yl)oxy)cyclohexane-1-carboxylic acid]
